# In patent publication US20120034608A1, “MICRORNA AS A BIOMARKER OF PANCREATIC ISLET BETA-CELL ENGAGEMENT” (Merck Sharp & Dohme Corp., priority 2009, published 2012):
# Key:
# Format in all cases: cell-based, rat
# [1] = system: INS-1 832/3 cells; assay: miRNA expression profiling of GLP-1 treated INS-1 832/3 cells (SYBR green qPCR); conditions: 50 nM GLP-1 for 24 hours, 16 mM glucose
# Description: Glucagon like peptide-1 (GLP-1) exerts pleiotropic effects on pancreatic β-cell function. GLP-1 potentiates glucose-dependent insulin secretion (GDIS) in pancreatic β-cells. Chronic administration of GLP-1 also promotes insulin synthesis as well as β-cell proliferation and neogenesis, at least in animal models. The detailed underlying mechanism remains to be fully understood. […] The expression levels of 250 microRNAs in INS-1 832/3 cell cultured in the presence or absence of 50 nM GLP-1 for 24 hours were compared using quantitative reverse transcription polymerase chain reaction (RT-PCR) method.
# For GLP-1 treatment, GLP-1 (7-37) amide (ABCHEM) was added in the media in the presence of 16 mM glucose for 24 hours.
# For microRNA profiling, total RNA was extracted from INS-1 832/3 cells with TRIZOL reagent (Invitrogen, Carlsbad, Calif.). A total of 250 miRNA species were determined by SYBR green quantitative PCR (qPCR) method at Rossetta Inpharmatics (Seattle, Wash.). Quantitative PCR is a method used to detect relative or absolute gene expression level. All qPCR involves the use of fluorescence to detect the threshold cycle (Ct) during PCR when the level of fluorescence gives signal over the background and is in the linear portion of the amplified curve. […] In this example, the Ct value data was calculated into copy number per 10 pg total RNA using the standard curve method. […]
# [2] = system: INS-1 832/3 cells; assay: release of miRNAs from INS-1 832/3 cells into culture media (TAQMAN, normalized to U6 RNA); conditions: 50 nM GLP-1, after 4 or 8 hours
# Description: INS1 832/3 cells were treated with 50 nM GLP-1 (7-37) amide (BACHEM) in RPMI 1640 with 10% FBS and 11 mM glucose in 24-well plates for 4, 8, 16, and 24 hours. Cell culture media was collected, 100 μL out of 1 mL media per sample was used for RNA extraction following the protocol for plasma samples (Mitchell et al., Proc. Natl. Acad. Sci. USA 105: 10513-10518). Briefly, RNA isolation was performed using the mirVana PARIS kit following the manufacturer's protocol (Ambion), except that samples were extracted twice with acid phenol-chloroform. The average of about 80 μL of eluate was recovered from each extraction. A fixed volume of 1.67 μL of the RNA eluate was used as input into the reverse transcription reaction. RNA was reverse transcribed using the TAQMAN miRNA Reverse Transcription Kit and miRNA-specific stem-loop primers in 5 μL volume (Applied BioSystems). About 2.25 μL of diluted PCR product (combining 5 μL RT product with 28.9 μL H2O) was added to 2.75 μL of PCR assay reagents to generate a PCR of 5 μL of total volume. The relative miRNA levels were determined by real-time RT-PCR using the ABI PRISM 7900 Sequence Detection System from Applied Biosystems (Foster City, Calif.) through 40 cycles as described in Example 2. TAQMAN reagents were purchased from Applied Biosystems (Foster City, Calif.). […]
# [3] = system: INS-1 832/13 cells; assay: glucose dependent insulin secretion (GDIS) assay in INS-1 832/13 cells; conditions: 16 mM glucose, two-hour incubation in KRB
# Description: We overexpressed the precursors of miR-132 and miR-212 to evaluate their possible contribution to β-cell function. MicroRNA miR-375 was included as a control as it been reported to have an inhibitory effect on GDIS (Poy et al., Nature 432: 226-230 (2004)). Chemically modified Pre-miR™ miRNA precursor molecules and Anti-miR™ miRNA inhibitors were purchased from Ambion (Foster City, Calif.). miRCURY LNA™ microRNA knockdown oligonucleotides were purchased from Exiqon (Woburn, Mass.). The oligonucleotide molecules were delivered to the cells by the Nucleofector Device (Amaxa, Gaithersburg, Md.). In brief, INS-1 cells were trypsinized, centrifuged, and resuspended in 100 μl Nucleofector solution V. Then 100-500 pmole RNA oligonucleotides were transfected to 3-million cells at the concentration of 1-5 μM with the Amaxa Nucleofector Device. Scramble controls from the vendors were used with the same transfection method. After electroporation, the cells were transferred to regular culture medium and then split into replicates in 96-well plates. Insulin secretion assay or LANCE cAMP assay were performed 48 hours post electroporation.
# INS-1 cell glucose dependent insulin secretion (GDIS) assay was performed as follows. The GDIS assay was performed with cells grown to near confluency in 96-well plates. Prior to the assay, cells were washed once with PBS and pre-incubated for two hours in freshly prepared Krebs-Ringer Bicarbonate (KRB) medium without glucose. The medium were then replaced with KRB with 2, 8 or 16 mM glucose or along with 10 nM GLP-1. The cells were incubated for another two hours in a CO2 incubator. The media was then removed at the end of incubation, and assayed for insulin levels by Ultra-sensitive Rat Insulin ELISA kit (ALPCO, Salem, N.H.) or insulin immunoassay by Gyrolab workstation (GYROS AB, Uppsala, Sweden). Intracellular insulin was extracted by acid ethanol method for measuring intracellular insulin content. Total protein was measured by Pierce 660 nm Protein Assay from Pierce Biotechnology, Inc. (Rockford, Ill.).
substance,measurement,setting,value
GLP-1 (7-37) amide,"expression of miR-375, miR-9 and miR-124a",[1],no significant changes
same,miR-132 in the medium compared to vehicle,[2],remained unchanged
same,miR-212 in the medium compared to vehicle,[2],remained unchanged
same,increase of insulin secretion upon treatment with GLP-1,[3],less than 50%
